Among the targets are D(3) dopamine receptor (Homo sapiens, UniProt P35462); Cholinesterase (Homo sapiens, UniProt P06276); Acetylcholinesterase (Homo sapiens, UniProt P22303); Beta-secretase 1 (Homo sapiens, UniProt P56817).
Test [1] concerns the target T1, D(1A) dopamine receptor (Homo sapiens, UniProt P21728).
Test [2] has as its target T2, D(2) dopamine receptor (Homo sapiens, UniProt P14416).
Test [3] addresses T2, D(2) dopamine receptor. The source holds these as a separate data set.
For test [4], the target named is T3, Amine oxidase [flavin-containing] A (Homo sapiens, UniProt P21397).
T3 sequence (P21397 whole entry): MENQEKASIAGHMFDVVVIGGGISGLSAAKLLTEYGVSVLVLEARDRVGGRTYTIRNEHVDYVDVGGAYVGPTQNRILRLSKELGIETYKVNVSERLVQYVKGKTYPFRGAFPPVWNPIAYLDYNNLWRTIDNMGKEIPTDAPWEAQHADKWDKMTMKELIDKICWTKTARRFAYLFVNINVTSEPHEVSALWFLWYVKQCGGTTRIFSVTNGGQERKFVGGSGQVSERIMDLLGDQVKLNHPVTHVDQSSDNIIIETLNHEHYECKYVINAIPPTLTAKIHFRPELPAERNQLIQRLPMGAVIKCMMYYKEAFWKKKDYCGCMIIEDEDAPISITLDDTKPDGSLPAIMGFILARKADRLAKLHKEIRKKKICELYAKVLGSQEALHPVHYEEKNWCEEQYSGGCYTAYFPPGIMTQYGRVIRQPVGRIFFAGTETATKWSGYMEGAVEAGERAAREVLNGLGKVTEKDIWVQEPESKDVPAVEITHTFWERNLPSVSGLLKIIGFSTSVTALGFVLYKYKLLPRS

The target of test [5] is T4, D(4) dopamine receptor (Homo sapiens, UniProt P21917).
T4 sequence (P21917 whole entry): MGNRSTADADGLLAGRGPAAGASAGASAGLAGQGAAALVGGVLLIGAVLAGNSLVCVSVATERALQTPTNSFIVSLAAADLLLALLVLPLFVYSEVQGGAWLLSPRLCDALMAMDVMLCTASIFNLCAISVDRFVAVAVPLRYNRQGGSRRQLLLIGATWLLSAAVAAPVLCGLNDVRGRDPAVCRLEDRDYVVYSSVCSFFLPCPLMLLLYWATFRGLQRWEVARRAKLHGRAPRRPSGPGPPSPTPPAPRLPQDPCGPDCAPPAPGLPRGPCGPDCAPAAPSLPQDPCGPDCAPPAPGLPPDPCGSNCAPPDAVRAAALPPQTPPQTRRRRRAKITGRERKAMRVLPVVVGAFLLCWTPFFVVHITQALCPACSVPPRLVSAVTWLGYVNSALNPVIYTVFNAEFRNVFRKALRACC

For test [6], the target named is T5, Amine oxidase [flavin-containing] B (Homo sapiens, UniProt P27338).
T5 sequence (P27338 whole entry): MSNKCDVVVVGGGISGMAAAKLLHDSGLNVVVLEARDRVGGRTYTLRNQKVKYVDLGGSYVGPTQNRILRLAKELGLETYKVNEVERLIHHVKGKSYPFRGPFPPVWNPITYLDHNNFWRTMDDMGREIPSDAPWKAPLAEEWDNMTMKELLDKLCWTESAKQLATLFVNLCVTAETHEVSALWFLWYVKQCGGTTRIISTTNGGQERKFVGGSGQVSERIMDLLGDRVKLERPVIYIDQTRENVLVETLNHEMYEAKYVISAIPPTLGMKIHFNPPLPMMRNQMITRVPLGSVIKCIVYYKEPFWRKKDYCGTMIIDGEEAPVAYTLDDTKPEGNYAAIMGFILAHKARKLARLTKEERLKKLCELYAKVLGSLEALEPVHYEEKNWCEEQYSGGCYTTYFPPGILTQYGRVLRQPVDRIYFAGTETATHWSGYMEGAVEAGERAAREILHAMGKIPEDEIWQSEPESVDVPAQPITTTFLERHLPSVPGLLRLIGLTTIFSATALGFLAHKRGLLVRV

In test [7] the target is T2, D(2) dopamine receptor. The source holds these as a separate data set.
The target of test [8] is T1, D(1A) dopamine receptor. This is another data set of the same source.
Test [9] addresses T2, D(2) dopamine receptor. This is another data set of the same source.
In test [10] the target is T2, D(2) dopamine receptor. This is another data set of the same source.
Test [11] deals with T2, D(2) dopamine receptor. This is another data set of the same source.
For test [12], the target named is T6, Alpha-1A adrenergic receptor (Homo sapiens, UniProt P35348).
T6 sequence (P35348 whole entry): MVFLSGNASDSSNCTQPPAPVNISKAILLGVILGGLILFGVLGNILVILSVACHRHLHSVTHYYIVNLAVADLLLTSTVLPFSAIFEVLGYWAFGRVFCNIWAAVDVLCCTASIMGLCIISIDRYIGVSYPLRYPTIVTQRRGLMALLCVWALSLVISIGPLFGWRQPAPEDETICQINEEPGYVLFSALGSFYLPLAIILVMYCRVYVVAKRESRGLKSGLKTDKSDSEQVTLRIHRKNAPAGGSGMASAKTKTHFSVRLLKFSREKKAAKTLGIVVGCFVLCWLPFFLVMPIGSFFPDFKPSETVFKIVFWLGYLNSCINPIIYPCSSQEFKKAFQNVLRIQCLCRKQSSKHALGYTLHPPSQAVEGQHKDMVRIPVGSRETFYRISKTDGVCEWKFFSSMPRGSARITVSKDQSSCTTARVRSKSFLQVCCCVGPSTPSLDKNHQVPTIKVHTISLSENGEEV

The target in test [13] is T2, D(2) dopamine receptor. This is another data set of the same source.
Test [14] has as its target T4, D(4) dopamine receptor. The source holds these as a separate data set.
The target of test [15] is T7, 5-hydroxytryptamine receptor 2C (Homo sapiens, UniProt P28335).
T7 sequence (P28335 whole entry): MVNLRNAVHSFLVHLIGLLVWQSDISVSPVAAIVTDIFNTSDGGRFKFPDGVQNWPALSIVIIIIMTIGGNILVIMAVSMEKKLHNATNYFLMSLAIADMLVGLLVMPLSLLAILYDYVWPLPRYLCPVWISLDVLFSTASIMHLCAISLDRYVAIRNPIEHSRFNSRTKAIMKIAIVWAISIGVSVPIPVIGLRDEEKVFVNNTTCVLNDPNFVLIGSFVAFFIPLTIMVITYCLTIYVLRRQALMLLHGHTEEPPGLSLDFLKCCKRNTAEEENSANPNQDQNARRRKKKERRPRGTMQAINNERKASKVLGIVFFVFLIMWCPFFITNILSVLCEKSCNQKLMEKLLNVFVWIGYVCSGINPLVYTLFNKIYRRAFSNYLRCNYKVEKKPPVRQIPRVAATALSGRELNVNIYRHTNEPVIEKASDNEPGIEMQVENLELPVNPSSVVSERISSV

The target of test [16] is 5-hydroxytryptamine receptor 7 (Homo sapiens, UniProt P34969).
For test [17], the target named is 5-hydroxytryptamine receptor 1B (Homo sapiens, UniProt P28222).
Test [18] has as its target T8, Alpha-2C adrenergic receptor (Homo sapiens, UniProt P18825).
T8 sequence (P18825 whole entry): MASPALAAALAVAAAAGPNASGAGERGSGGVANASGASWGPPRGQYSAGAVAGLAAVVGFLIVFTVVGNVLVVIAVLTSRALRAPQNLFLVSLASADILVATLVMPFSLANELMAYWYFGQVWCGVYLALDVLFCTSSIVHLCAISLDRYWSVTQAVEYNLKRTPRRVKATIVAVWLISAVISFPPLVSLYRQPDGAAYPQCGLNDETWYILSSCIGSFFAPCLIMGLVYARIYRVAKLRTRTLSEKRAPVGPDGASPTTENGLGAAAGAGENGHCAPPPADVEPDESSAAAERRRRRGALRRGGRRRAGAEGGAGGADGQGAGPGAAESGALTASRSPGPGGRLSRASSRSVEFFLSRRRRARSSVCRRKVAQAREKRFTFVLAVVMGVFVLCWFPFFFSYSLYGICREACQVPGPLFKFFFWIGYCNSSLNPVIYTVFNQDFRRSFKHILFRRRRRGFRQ

Test [19] concerns the target 5-hydroxytryptamine receptor 2A (Homo sapiens, UniProt P28223).
Test [20] concerns the target 5-hydroxytryptamine receptor 1D (Homo sapiens, UniProt P28221).

Bounds are passed on as bounds.

T2 sequence (P14416 whole entry): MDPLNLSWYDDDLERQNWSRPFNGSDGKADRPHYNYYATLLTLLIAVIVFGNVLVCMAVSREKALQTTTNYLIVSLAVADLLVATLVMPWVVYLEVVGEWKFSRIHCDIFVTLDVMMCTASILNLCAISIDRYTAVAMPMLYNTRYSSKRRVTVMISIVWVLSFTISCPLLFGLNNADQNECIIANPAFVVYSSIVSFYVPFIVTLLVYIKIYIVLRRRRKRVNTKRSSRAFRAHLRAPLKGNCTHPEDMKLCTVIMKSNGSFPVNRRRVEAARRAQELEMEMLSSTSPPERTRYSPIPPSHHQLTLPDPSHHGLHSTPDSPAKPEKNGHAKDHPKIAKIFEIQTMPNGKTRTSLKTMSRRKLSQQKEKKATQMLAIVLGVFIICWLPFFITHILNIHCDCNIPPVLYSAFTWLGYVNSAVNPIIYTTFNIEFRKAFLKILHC
D(3) dopamine receptor, sequence (P35462 whole entry): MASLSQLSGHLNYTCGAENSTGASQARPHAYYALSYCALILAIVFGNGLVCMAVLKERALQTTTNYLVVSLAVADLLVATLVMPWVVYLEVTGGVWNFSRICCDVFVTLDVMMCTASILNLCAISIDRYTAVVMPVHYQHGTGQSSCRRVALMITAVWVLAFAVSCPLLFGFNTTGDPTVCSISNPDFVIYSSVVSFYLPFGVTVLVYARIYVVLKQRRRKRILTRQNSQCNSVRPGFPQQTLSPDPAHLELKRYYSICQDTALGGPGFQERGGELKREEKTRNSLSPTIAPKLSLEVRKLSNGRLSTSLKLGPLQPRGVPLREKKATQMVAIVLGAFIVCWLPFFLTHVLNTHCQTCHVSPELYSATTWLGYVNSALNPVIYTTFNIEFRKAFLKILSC
T1 sequence (P21728 whole entry): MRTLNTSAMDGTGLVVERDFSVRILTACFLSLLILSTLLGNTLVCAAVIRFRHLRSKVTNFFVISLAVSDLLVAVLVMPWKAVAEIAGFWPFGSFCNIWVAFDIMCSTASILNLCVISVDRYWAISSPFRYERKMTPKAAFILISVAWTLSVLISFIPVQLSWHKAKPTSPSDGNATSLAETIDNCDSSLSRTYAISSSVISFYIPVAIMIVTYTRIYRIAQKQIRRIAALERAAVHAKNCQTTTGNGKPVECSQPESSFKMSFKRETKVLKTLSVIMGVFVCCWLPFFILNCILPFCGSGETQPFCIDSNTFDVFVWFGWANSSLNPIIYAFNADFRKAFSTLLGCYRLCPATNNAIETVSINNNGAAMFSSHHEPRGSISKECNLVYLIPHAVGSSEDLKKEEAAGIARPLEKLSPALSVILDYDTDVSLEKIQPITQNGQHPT
Acetylcholinesterase, sequence (P22303 whole entry): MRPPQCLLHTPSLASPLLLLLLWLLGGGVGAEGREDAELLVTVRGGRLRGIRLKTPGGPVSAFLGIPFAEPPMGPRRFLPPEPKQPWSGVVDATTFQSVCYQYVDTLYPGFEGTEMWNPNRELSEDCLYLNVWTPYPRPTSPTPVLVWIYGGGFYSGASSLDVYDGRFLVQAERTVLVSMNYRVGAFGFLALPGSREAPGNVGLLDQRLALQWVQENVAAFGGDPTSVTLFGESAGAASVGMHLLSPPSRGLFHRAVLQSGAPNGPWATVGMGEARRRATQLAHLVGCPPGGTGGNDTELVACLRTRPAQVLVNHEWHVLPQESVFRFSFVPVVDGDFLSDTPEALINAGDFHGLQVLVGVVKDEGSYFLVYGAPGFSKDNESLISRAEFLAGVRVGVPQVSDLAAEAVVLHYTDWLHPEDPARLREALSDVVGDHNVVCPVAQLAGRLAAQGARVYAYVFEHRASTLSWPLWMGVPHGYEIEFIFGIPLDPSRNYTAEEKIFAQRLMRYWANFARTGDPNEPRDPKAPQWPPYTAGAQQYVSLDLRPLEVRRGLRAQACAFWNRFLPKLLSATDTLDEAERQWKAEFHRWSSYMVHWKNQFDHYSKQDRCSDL
Beta-secretase 1, sequence (P56817 whole entry): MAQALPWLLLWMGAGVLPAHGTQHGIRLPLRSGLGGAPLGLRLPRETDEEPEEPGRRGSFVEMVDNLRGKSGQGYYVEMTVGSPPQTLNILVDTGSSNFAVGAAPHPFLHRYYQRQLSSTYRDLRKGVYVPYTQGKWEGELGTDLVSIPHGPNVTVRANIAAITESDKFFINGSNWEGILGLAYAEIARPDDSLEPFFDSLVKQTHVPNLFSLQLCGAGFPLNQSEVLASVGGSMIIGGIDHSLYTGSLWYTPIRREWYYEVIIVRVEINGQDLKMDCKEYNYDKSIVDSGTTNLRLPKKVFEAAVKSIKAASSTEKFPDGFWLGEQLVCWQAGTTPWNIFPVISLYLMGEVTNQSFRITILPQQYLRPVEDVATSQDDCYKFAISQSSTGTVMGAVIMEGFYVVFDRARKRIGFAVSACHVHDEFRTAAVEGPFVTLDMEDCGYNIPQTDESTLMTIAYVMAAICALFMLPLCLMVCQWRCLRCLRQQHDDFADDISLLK
5-hydroxytryptamine receptor 2A, sequence (P28223 whole entry): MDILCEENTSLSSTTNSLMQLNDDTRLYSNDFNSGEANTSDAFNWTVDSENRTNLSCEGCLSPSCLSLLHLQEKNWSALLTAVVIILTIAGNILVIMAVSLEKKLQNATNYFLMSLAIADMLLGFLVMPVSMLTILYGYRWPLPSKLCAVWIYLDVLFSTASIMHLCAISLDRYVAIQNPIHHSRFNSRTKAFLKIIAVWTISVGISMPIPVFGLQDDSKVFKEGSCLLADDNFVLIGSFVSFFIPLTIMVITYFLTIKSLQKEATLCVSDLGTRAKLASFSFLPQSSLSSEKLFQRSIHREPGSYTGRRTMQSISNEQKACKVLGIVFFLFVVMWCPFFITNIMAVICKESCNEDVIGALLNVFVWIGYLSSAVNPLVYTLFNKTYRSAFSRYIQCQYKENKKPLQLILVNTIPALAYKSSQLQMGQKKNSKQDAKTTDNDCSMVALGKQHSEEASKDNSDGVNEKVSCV
5-hydroxytryptamine receptor 1D, sequence (P28221 whole entry): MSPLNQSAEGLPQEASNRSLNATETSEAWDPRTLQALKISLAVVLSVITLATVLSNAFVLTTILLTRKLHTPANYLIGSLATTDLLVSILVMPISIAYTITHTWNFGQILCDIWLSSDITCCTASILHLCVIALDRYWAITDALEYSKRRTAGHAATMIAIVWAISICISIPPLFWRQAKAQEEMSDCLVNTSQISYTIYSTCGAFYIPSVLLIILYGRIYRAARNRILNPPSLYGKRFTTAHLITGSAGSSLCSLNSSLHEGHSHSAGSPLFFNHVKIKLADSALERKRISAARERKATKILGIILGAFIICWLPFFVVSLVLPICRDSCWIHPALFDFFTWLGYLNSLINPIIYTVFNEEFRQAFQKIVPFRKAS
5-hydroxytryptamine receptor 1B, sequence (P28222 whole entry): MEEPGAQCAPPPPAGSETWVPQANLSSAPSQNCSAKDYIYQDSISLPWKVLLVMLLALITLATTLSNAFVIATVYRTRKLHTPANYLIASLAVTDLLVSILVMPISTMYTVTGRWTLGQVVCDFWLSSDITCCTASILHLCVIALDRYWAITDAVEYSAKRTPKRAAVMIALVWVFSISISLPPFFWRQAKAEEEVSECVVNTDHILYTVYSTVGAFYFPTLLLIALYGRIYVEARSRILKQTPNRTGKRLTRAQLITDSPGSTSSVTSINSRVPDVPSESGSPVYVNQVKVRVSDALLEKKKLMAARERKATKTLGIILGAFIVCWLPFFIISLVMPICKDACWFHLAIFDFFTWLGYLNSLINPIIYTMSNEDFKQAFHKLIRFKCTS
Cholinesterase, sequence (P06276 whole entry): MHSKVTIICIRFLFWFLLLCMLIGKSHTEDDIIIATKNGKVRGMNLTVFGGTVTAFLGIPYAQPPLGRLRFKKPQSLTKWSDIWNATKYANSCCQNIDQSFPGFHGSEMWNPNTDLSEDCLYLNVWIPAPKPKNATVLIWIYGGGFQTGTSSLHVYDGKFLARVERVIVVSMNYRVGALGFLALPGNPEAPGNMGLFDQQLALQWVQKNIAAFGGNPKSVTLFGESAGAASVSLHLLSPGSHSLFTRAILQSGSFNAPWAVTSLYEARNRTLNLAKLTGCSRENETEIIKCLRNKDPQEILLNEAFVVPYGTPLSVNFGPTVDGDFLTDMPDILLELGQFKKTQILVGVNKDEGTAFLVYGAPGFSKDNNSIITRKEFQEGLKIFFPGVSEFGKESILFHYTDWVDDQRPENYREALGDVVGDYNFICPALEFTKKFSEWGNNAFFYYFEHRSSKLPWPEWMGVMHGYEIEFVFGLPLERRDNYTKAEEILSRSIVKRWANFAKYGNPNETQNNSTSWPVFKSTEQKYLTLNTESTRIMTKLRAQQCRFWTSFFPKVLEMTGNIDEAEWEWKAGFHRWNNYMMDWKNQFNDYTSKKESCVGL
5-hydroxytryptamine receptor 7, sequence (P34969 whole entry): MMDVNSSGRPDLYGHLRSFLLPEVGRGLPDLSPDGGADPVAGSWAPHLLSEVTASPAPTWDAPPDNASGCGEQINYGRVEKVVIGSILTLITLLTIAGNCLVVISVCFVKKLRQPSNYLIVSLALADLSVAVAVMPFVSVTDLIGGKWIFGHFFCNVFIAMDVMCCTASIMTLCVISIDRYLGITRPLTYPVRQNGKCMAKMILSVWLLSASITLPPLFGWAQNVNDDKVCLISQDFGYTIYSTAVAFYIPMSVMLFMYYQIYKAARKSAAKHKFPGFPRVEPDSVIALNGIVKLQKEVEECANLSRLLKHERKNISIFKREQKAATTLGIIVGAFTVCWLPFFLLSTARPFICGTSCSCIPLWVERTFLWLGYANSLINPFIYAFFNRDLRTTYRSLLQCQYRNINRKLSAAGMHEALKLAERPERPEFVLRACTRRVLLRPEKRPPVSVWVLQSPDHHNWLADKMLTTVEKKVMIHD

Molecule `CCCN1CCc2cc(OCCCF)cc3c2[C@H]1Cc1cccc(O)c1-3` yielded an inhibition constant Ki on D(1A) dopamine receptor [1] of 0.54 nM.

On D(1A) dopamine receptor [1], `CCN1CCc2cc(OCCF)cc3c2[C@H]1Cc1cccc(O)c1-3` had an inhibitory constant (Ki) of 0.83 nM.

With `COc1cc2c(cc1O)CN1CCc3cc(OC)c(O)cc3[C@@H]1C2`, at D(2) dopamine receptor [2], the affinity, expressed as Ki, was 514 nM.

As for `COc1cc2c(cc1O)[C@@H]1Cc3ccc(OC)c(OC)c3CN1CC2`, the affinity on D(1A) dopamine receptor [1], expressed as Ki, was […].

Turning to `Oc1cc2c(cc1O)C1Cc3cccc(O)c3CN1CC2` (stereo unspecified), the Ki at D(1A) dopamine receptor [1] is 3800 nM; on D(3) dopamine receptor it was 93 nM.

With `CCCN1CCc2cccc3c2[C@H]1Cc1cccc(OC(C)=O)c1-3`, the Ki at D(2) dopamine receptor [3] is 72.3 nM; at D(1A) dopamine receptor [1], above 10000 nM.

On D(1A) dopamine receptor [1], `CCCN1CCc2cccc3c2[C@H]1Cc1cccc(O)c1-3` displayed a Ki of 699 nM.

In the case of `CCCCC(=O)Oc1cccc2c1-c1cccc3c1[C@@H](C2)N(CCC)CC3`, the Ki on D(2) dopamine receptor [3] was 340 nM; at D(1A) dopamine receptor [1], above 20000 nM.

Consider `C=C(C)[C@H](CC=C(C)C)Cc1c(O)cc(OC)c2c1O[C@H](c1ccc(O)cc1O)CC2=O`, for which the IC50 on Cholinesterase was 5290 nM; at Acetylcholinesterase it was 42100 nM; on Beta-secretase 1, 24500 nM.

For the molecule `OCc1c(Br)c(O)c(O)c(Br)c1Br`, the values for the IC50 in test [4] and in test [6] were 205000 nM and 151000 nM, respectively. This molecule registered an EC50 at D(4) dopamine receptor [5] of 57200 nM.

As for `COc1cc2c(cc1OC)Oc1c(O)ccc3c1[C@@H](C2)N(C)CC3`, the IC50 stood at 320 nM on D(2) dopamine receptor [7] and 80 nM on D(1A) dopamine receptor [8].

Turning to `COC1=CC2C[C@@H]3c4cc(O)c(OC)cc4CCN3CC2C=C1O` (stereo partly specified), the Ki turned out to be 8.75 nM at D(1A) dopamine receptor [1], 708 nM at D(2) dopamine receptor [2] and 606 nM on D(3) dopamine receptor.

As to `COc1cc2c(cc1O)C[C@@H]1c3c(ccc(O)c3O2)CCN1C`, the results for the IC50 on D(2) dopamine receptor [7] and at D(1A) dopamine receptor [8] were 220 nM and 100 nM, respectively.

`COc1ccc(C[C@H]2c3cc(O)c(OC)cc3CCN2C)cc1O` [(S)-RETICULINE]: the IC50 stood at 470 nM at D(2) dopamine receptor [7] and 1800 nM against D(1A) dopamine receptor [8].

On D(2) dopamine receptor [7], `C=C1CCC[C@]2(C)Cc3occ(C)c3C[C@@H]12` [ATRACTYLON] yielded a 50% inhibitory concentration (IC50) of 2500 nM.

Consider `COc1ccc2cc3[n+](cc2c1OC)CCc1cc2c(cc1-3)OCO2` [BERBERINE CHLORIDE], for which the IC50 stood at 17100 nM at D(2) dopamine receptor [9] and 38600 nM against D(2) dopamine receptor [10].

On D(2) dopamine receptor [11], `COc1cc2c(cc1O)C[C@H]1c3c(cc(O)c(OC)c3-2)CCN1C` [BOLDINE] registered an IC50 of 520 nM.

For the molecule `CC(C)C[C@H]1C(=O)N2CCC[C@H]2[C@]2(O)O[C@](NC(=O)[C@@H]3C=C4c5cccc6[nH]c(Br)c(c56)C[C@H]4N(C)C3)(C(C)C)C(=O)N12` [BROMOCRIPTINE], the inhibitory constant (Ki) on D(1A) dopamine receptor [1] turned out to be 3420 nM; in test [12], 18 nM.

For `C=CCN1C[C@H](C(=O)N(CCCN(C)C)C(=O)NCC)C[C@@H]2c3cccc4[nH]cc(c34)C[C@H]21` [CABERGOLINE], the figures for the Ki at D(2) dopamine receptor [3], on D(1A) dopamine receptor [1] and on D(2) dopamine receptor [13] were 0.36 nM, 3800 nM and 0.36 nM, respectively.

Take `COc1cc2c(cc1O)Oc1c(O)ccc3c1[C@H](C2)N(C)CC3` [CELTISINE]: the concentration for half-maximal inhibition (IC50) on D(2) dopamine receptor [7] is 30 nM; against D(1A) dopamine receptor [8] it was 60 nM.

As to `OCCN1CCN(CCCN2c3ccccc3Sc3ccc(C(F)(F)F)cc32)CC1` [FLUPHENAZINE], the inhibitory constant (Ki) on D(4) dopamine receptor [14] was 130 nM.

As for `COc1cc2c(cc1OC)-c1c(OC)c(OC)cc3c1[C@H](C2)N(C)CC3` [GLAUCINE], at D(2) dopamine receptor [11], the IC50 came to 3020 nM.

As for `Cc1nc2n(c(=O)c1CCN1CCC(c3noc4cc(F)ccc34)CC1)CCCC2O` (stereo unspecified) [PALIPERIDONE], the inhibition constant Ki on D(2) dopamine receptor [3] amounted to 1.6 nM; at D(1A) dopamine receptor [1], 554 nM; in [15], 19 nM; in [16], 6.8 nM; in test [17], 111 nM; in test [18], 2.7 nM. The Ki was 0.83 nM in test [19], 7.3 nM in test [20], 7.5 nM on D(3) dopamine receptor and 11 nM in test [12].

The molecule `CCCN1C[C@H](CSC)C[C@@H]2c3cccc4[nH]cc(c34)C[C@H]21` [PERGOLIDE] displayed an inhibition constant Ki in [12] of 888 nM.

Take `COc1cc2c(cc1O)[C@@H]1Cc3ccc(O)c(OC)c3CN1CC2` [STEPHOLIDINE]: the inhibition constant Ki amounted to 11.6 nM at D(2) dopamine receptor [3], 5.1 nM at D(1A) dopamine receptor [1], 1450 nM on D(4) dopamine receptor [14] and 23.4 nM on D(3) dopamine receptor.

In the case of `COc1cc2c(cc1OC)[C@@H]1Cc3ccc(OC)c(OC)c3CN1CC2` [TETRAHYDROPALMATINE], the Ki turned out to be 388 nM at D(2) dopamine receptor [3] and 124 nM on D(1A) dopamine receptor [1].

Values taken from ChEMBL document CHEMBL5523761 (J Med Chem, 2024).
